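Compound exposure: 48 hours, 5 concentrations, 96-well plates. Abbreviation: GI50, concentration required for 50% inhibition of growth. Definition used: TGI = concentration required for complete inhibition of growth.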
Columns and labels:
Assay in all cases: DTP human tumour cell line panel, 48 h
[1] = tested on: SNB-75 CNS
[2] = tested on: SNB-19 CNS
[3] = tested on: OVCAR-8 ovarian
[4] = tested on: HCT-15 colon
[5] = tested on: RPMI-8226 leukemia
[6] = tested on: NCI-H23 lung
[7] = tested on: HS 578T breast
[8] = tested on: ACHN renal
[9] = tested on: BT-549 breast
[10] = tested on: SF-539 CNS
[11] = tested on: NCI-H226 lung
[12] = tested on: TK-10 renal
[13] = tested on: A498 renal
[14] = tested on: A549 NSCLC
[15] = tested on: MOLT-4 leukemia
[16] = tested on: HCC-2998 colon
[17] = tested on: UO-31 renal
[18] = tested on: SK-OV-3 ovarian
[19] = tested on: MCF7 breast
[20] = tested on: HT29 colon
[21] = tested on: UACC-257 melanoma
[22] = tested on: HCT-116 colon
[23] = tested on: MALME-3M melanoma
[24] = tested on: T-47D breast
[25] = tested on: 786-0 renal
[26] = tested on: KM12 colon
[27] = tested on: NCI/ADR-RES ovarian
[28] = tested on: OVCAR-5 ovarian
[29] = tested on: COLO 205 colon
[30] = tested on: SW-620 colon
[31] = tested on: NCI-H522 lung
[32] = tested on: CAKI-1 renal
[33] = tested on: SK-MEL-5 melanoma
[34] = tested on: HOP-92 NSCLC
[35] = tested on: MDA-MB-435
[36] = tested on: SK-MEL-28 melanoma
[37] = tested on: SF-295 CNS
[38] = tested on: SR leukemia
[39] = tested on: M14 melanoma
[40] = tested on: DU-145 prostate
[41] = tested on: UACC-62 melanoma
[42] = tested on: SN12C renal
[43] = tested on: RXF 393 renal
[44] = tested on: NCI-H460 lung
[45] = tested on: IGROV1 ovarian
[46] = tested on: HL-60(TB) leukemia
[47] = tested on: EKVX NSCLC
[48] = tested on: MDA-MB-468 breast
[49] = tested on: LOX IMVI melanoma
[50] = tested on: MDA-MB-231 breast
[51] = tested on: U251 CNS
[52] = tested on: SK-MEL-2 melanoma
[53] = tested on: SF-268 CNS
[54] = tested on: PC-3 prostate
[55] = tested on: OVCAR-3 ovarian

O/N=C(\CSc1nnc(-c2c[nH]c3ccccc23)n1-c1ccccc1)c1ccc(Cl)cc1
GI50 [1]: 1.68 µM
TGI [1]: 5.8 µM
GI50 [2]: 6.89 µM
TGI [2]: 45.2 µM
GI50 [3]: 3.72 µM
TGI [3]: 15.8 µM
GI50 [4]: 3.2 µM
TGI [4]: 13.6 µM
GI50 [5]: 2.38 µM
TGI [5]: 7.29 µM
GI50 [6]: 6.51 µM
TGI [6]: > 100 µM
GI50 [7]: 3.09 µM
TGI [7]: 16.6 µM
GI50 [8]: 3.69 µM
TGI [8]: 14.5 µM
GI50 [9]: 3.71 µM
TGI [9]: 11.1 µM
GI50 [10]: 10.2 µM
TGI [10]: 29.5 µM
GI50 [11]: 3.98 µM
TGI [11]: 17.6 µM
GI50 [12]: 3.7 µM
TGI [12]: 17.7 µM
GI50 [13]: 15.4 µM
TGI [13]: 65.8 µM
GI50 [14]: 3.35 µM
TGI [14]: 16.8 µM
GI50 [15]: 2.16 µM
TGI [15]: 5.69 µM
GI50 [16]: 4.74 µM
TGI [16]: 22.5 µM
GI50 [17]: 2.88 µM
TGI [17]: 15.7 µM
GI50 [18]: 3.38 µM
TGI [18]: 12.4 µM
GI50 [19]: 3.63 µM
TGI [19]: 21.6 µM
GI50 [20]: 3.04 µM
TGI [20]: 11.8 µM
GI50 [21]: 4.67 µM
TGI [21]: 87.8 µM
GI50 [22]: 2.92 µM
TGI [22]: 13.7 µM
GI50 [23]: 4.99 µM
TGI [23]: 27.5 µM
GI50 [24]: 3.6 µM
TGI [24]: 31.4 µM
GI50 [25]: 7.29 µM
TGI [25]: > 100 µM
GI50 [26]: 4.72 µM
TGI [26]: > 100 µM
GI50 [27]: 2.95 µM
TGI [27]: 9.5 µM
GI50 [28]: 3.37 µM
TGI [28]: 11.4 µM
GI50 [29]: 4.47 µM
TGI [29]: 25.9 µM
GI50 [30]: 3.08 µM
TGI [30]: 16.1 µM
GI50 [31]: 3.11 µM
TGI [31]: 12.5 µM
GI50 [32]: 2.93 µM
TGI [32]: 12.4 µM
GI50 [33]: 3.87 µM
TGI [33]: 19.5 µM
GI50 [34]: 3.84 µM
TGI [34]: 37.6 µM
GI50 [35]: 1.74 µM
TGI [35]: 3.41 µM
GI50 [36]: 4.41 µM
TGI [36]: > 100 µM
GI50 [37]: 3.11 µM
TGI [37]: 13.4 µM
GI50 [38]: 4.74 µM
TGI [38]: > 100 µM
GI50 [39]: 3.16 µM
TGI [39]: 14.1 µM
GI50 [40]: 2.59 µM
TGI [40]: 6.32 µM
GI50 [41]: 2.62 µM
TGI [41]: 10.1 µM
GI50 [42]: 3.79 µM
TGI [42]: 16.3 µM
GI50 [43]: 2.22 µM
TGI [43]: 6.29 µM
GI50 [44]: 3.34 µM
TGI [44]: 15.7 µM
GI50 [45]: 5.35 µM
TGI [45]: 19.8 µM
GI50 [46]: 2.17 µM
TGI [46]: 6.34 µM
GI50 [47]: 3.21 µM
TGI [47]: 19.2 µM
GI50 [48]: 1.72 µM
TGI [48]: 3.47 µM
GI50 [49]: 1.72 µM
TGI [49]: 3.12 µM
GI50 [50]: 1.87 µM
TGI [50]: 3.66 µM
GI50 [51]: 4.73 µM
TGI [51]: 81.2 µM
GI50 [52]: 3.64 µM
TGI [52]: 17.1 µM
GI50 [53]: 2.11 µM
TGI [53]: 5.08 µM
GI50 [54]: 2.31 µM
TGI [54]: 7.29 µM
GI50 [55]: 4.58 µM
TGI [55]: 32.4 µM
